Patent publication US20070054943A1, “Therapeutic agent for keratoconjunctival disorder” (SANTEN PHARMACEUTICAL CO., LTD., priority 2004, published 2007)
Entries after “also recorded” stand apart in the source; their conditions may differ.

Test system: corneal disorder models
Experiment: Test for therapeutic effect on corneal damage (corneal disorder models, exorbital lacrimal gland removal, fluorescein staining score)
Assay type: in vivo, male SD rats
Conditions: for Improvement ratio (%): {(control)-(compound)}/{(control)-(normal eye)}x100; for Mean value of total scores: fluorescein staining score (0-3 each for upper, middle, lower cornea), mean of 8 cases, normal eye 2.9, control 6.1; for effect on corneal damage (in words): rat corneal disorder models, instillation of rosiglitazone 0.02% or pioglitazone hydrochloride 0.01%, 6 times a day for 14 days
Experimental: Test For Therapeutic Effect On Corneal Damage
Using male SD rats, in accordance with the method of Fujihara et al. (Invest. Ophthalmol. Vis. Sci. 42 (1) 96-100 (2001)), corneal disorder models were produced. After the production of the corneal disorder models, the improvement ratio of a corneal damage was evaluated by a method (Journal of the eye 21 (1) : 87-90 (2004)) modified from the method of Miyata et al. (Japanese Review of Clinical Ophthalmology 48 (2) : 183-188 (1994)).
A male SD rat was systemically anesthetized by an administration of Nembutal. Subsequently the exorbital lacrimal gland was removed and a corneal damage was induced over a period of 2 months.
Then, the present compound (rosiglitazone or pioglitazone hydrochloride) was administered as follows.
A physiological saline solution of rosiglitazone (0.02%) was instilled into both eyes 6 times a day for 14 days (one group consisting of 8 animals).
A physiological saline solution of pioglitazone hydrochloride (0.01%) was instilled into both eyes 6 times a day for 14 days (one group consisting of 8 animals).
In a control group, physiological saline was instilled into both eyes 6 times a day for 14 days (one group consisting of 8 animals).
Fourteen days after the start of instillation, the damaged parts of the cornea were stained with fluorescein. For each of the upper, middle and lower parts of the cornea, the degree of fluorescein staining was evaluated by scoring according to the criteria shown below and the improvement ratio of corneal damage was calculated from the mean value of the total scores for each of the above-mentioned parts.
• 0: No punctate staining • 1: Scattered staining (punctate staining being separated) • 2: Moderate staining (a part of punctate staining being adjacent) • 3: Heavy staining (punctate staining being barely separated) (Results)
By taking the mean value of the total scores for the control group (physiological saline) as a standard (improvement ratio: 0%) and according to the calculation formula shown below, the improvement ratios for rosiglitazone (0.02%) instillation group and pioglitazone (0.01%) instillation group were calculated, which are shown in Table 1. The mean value of the scores is a mean of those of 8 cases, respectively. Improvement ratio(%)={(control)−(the present compound)}/damage degree×100
Damage degree=(control)−(normal eye)

[1] = 0.01% (pioglitazone hydrochloride) in physiological saline instilled into both eyes 6 times a day for 14 days
[2] = 0.02% in physiological saline instilled into both eyes 6 times a day for 14 days

| SMILES | Improvement ratio (%) [1] | Mean value of total scores [1] | effect on corneal damage (in words) (listed as pioglitazone) | effect on corneal damage (in words) (listed as pioglitazone hydrochloride) | Improvement ratio (%) [2] | Mean value of total scores [2] | effect on corneal damage (in words) |
| --- | --- | --- | --- | --- | --- | --- | --- |
| CCc1ccc(CCOc2ccc(CC3SC(=O)NC3=O)cc2)nc1 (stereo not shown) [Pioglitazone, 5-[[4-[2-(5-ethyl-2-pyridinyl)ethoxy]phenyl]methyl]-2,4-thiazolidinedione] | 62.5% | 4.1 | significantly improve a corneal damage | excellent improving effect |  |  |  |
| CN(CCOc1ccc(CC2SC(=O)NC2=O)cc1)c1ccccn1 (stereo not shown) [Rosiglitazone, 5-[p-[2-(methyl-2-pyridylamino)ethoxy]benzyl]-2,4-thiazolidinedione] |  |  |  |  | 68.7% | 3.9 | excellent improving effect; also recorded: significantly improve a corneal damage |
